In patent publication US20090221559A1 (priority 2005, published 2009):
Where two headings read alike, the source gives them in different places.

What was measured:
[1] = system: HCV replicon RNA replication in Huh-7 luc/neo (Huh-Luc) cells; test: HCV replicon assay (stable replicon cell reporter assay, luciferase read-out); type: cell-based, HCV type 1b
Procedure: (§1) The compounds of formula (I) were tested for anti-HCV activity in an assay determining their activity against NS5b polymerase and in an HCV replicon assay
The compounds of the present invention were examined for activity in the inhibition of HCV RNA replication in a cellular assay. […] The cellular assay was based on a bicistronic expression construct, as described by Lohmann et al. (1999) Science vol. 285 pp. 110-113 with modifications described by Krieger et al. (2001) Journal of Virology 75: 4614-4624, in a multi-target screening strategy. In essence, the method was as follows.
The assay utilized the stably transfected cell line Huh-7 luc/neo (hereafter referred to as Huh-Luc). This cell line harbored an RNA encoding a bicistronic expression construct comprising the wild type NS3-NS5B regions of HCV type 1b translated from an Internal Ribosome Entry Site (IRES) from encephalomyocarditis virus (EMCV), preceded by a reporter portion (FfL-luciferase), and a selectable marker portion (neo^R, neomycine phosphotransferase). The construct was bordered by 5′ and 3′ NTRs (non-translated regions) from HCV type 1b. Continued culture of the replicon cells in the presence of G418 (neo^R) was dependent on the replication of the HCV RNA. The stably transfected replicon cells that expressed HCV RNA, which replicated autonomously and to high levels, encoding inter alia luciferase, were used for screening the antiviral compounds.
The replicon cells were plated in 384 well plates in the presence of the test and control compounds which were added in various concentrations. Following an incubation of three days, HCV replication was measured by assaying luciferase activity (using standard luciferase assay substrates and reagents and a Perkin Elmer ViewLux™ ultraHTS microplate imager). […] The inhibitory activity of the compound on luciferase activity was monitored on the Huh-Luc cells, enabling a dose-response curve for each test compound.

[2] = molecular target: T1, HCV NS5B polymerase (His-tagged, C-terminal 21 amino acid deleted NS5B, HC-J4) (Hepatitis C virus genotype 1b, UniProt O92972); test: NS5b polymerase assay (biochemical RdRp assay, 3H-GTP incorporation, SPA beads); design: species or system HCV genotype 1b
T1 construct: The cDNA encoding NS5B amino acid 1-570 (HC-J4, genotype 1b); His tag (His6, from pET-21b) (C); made in house; host or cells: E. coli BL21 (DE3)
Procedure: as §1
The cDNA encoding NS5B amino acid 1-570 (HC-J4, genotype 1b, pCV-J4L6S, genebank accession number AF054247) was subcloned into the Nhe I and Xho I restriction sites of pET-21b. Expression of the subsequent His-tagged C-terminal 21 amino acid deleted NS5B was performed as follows:
Following transformation in BL21 (DE3) competent cells, bacterial cells were grown in 22 liter LB/Amp media until to reach OD600=0.4-0.6. Protein expression was induced by addition of IPTG 0.4 mM, supplemented with 10 μM MgCl2, and incubated for 14-16 hrs at 20° C. Cells were harvested, resuspended in lysis buffer (20 mM Tris-HCl pH=7.5, 0.3 M NaCl, 10% glycerol, 0.1% NP40, 4 mM MgCl2, 14 mM beta-mercaptoethanol, with tablet of EDTA-free protease cocktail inhibitors) and lysed by sonification. The cell lysate was cleared by high-speed centrifugation (20K×g for 30 min), captured on Ni-NTA beads for 70 min at 4° C., and eluted with 25 mM Hepes pH 7.5, 0.5 M NaCl, 10% glycerol, 14 mM BME, 500 mM imidazole. The eluent was dialysed against 25 mM Hepes pH 7.5, 10% glycerol, 50 mM NaCl, 14 mM BME, after which the protein was further purified by heparin chromatography using the same buffer with 1 M NaCl for elution. Fractions containing pure protein were collected, dialyzed against storage buffer 25 mM Hepes pH=7.5, 300 mM NaCl, 10% glycerol, 14 mM BME), and flash-freezed in liquid nitrogen.
Measurement of HCV NS5B polymerization activity was performed by evaluating the amount of radiolabeled GTP incorporated by the enzyme in a newly synthesized RNA using heteropolymeric RNA template/primer. The highthroughput RdRp assay was carried out in 384-well plates using 200 nM enzyme, 0.1 μCi of ^3H GTP, 5 mM MgCl2, 600 nM GTP, 30 nM PolyC, 300 nM 5′-biotinylated oligo(rG13)/poly(rC) in 20 mM Tris pH 7.5, 21 mM KCl, 2.5 mM DTT, 16.7 mM NaCl and 0.17 mM EDTA. Test compounds were dissolved in dimethylsulfoxide. The test compounds were added to the preformed polymerase-template complex, and incubated at room temperature (RT) for 15 min before the addition of NTPs. The 30-μl reaction was terminated after 2 h at 25° C. upon addition of 30-μl PVT-SPA beads (Amersham Biosciences RPNQ0009, 5 mg/ml in 0.5 M EDTA).

[3] = Hepatitis C virus, Huh-7, 72 h, read-out: Replicon Assay EC50 (μM), Huh-Luc cells, incubation of three days, luciferase activity
[4] = NS5B Polymerase Assay IC50 (μM)
[5] = Hepatitis C virus, Huh-7, 72 h, read-out: Replicon Assay EC50, Huh-Luc cells, three days incubation, luciferase activity
[6] = NS5B Polymerase Assay IC50, 200 nM enzyme, 3H-GTP incorporation, 2 h at 25° C.
[7] = Huh-Luc cells, three days incubation, luciferase activity, read-out: Replicon Assay EC50
[8] = 200 nM enzyme, 3H-GTP incorporation, 2 h at 25° C., read-out: NS5B Polymerase Assay IC50

T1 sequence (O92972 2417-3000, looked up, stated change not applied): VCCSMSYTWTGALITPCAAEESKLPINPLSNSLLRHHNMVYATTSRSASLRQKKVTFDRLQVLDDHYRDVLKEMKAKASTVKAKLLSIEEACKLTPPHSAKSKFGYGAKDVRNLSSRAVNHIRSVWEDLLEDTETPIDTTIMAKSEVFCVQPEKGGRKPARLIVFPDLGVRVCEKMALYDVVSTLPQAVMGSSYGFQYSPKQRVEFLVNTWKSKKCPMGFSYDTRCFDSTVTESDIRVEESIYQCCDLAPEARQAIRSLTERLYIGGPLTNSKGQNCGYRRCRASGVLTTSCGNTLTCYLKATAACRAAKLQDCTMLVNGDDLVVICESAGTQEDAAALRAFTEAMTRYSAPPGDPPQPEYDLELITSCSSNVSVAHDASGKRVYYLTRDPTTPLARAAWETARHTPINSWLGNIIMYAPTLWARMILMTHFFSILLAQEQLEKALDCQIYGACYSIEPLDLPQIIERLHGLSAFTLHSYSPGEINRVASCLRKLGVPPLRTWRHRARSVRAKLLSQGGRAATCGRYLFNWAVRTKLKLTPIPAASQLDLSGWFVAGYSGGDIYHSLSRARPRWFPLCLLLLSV

| SMILES | EC50 [1, 3] | IC50 [2, 4] | EC50 [1, 5] | IC50 [2, 6] | also measured |
| --- | --- | --- | --- | --- | --- |
| CC1(C)CC(=O)C2=C(C1)Nc1ccccc1NC2c1cc(Cl)ccc1Cl (stereo not shown) [compound 438, 11-[2,5-dichlorophenyl]-3,3-dimethyl-2,3,4,5,10,11-hexahydro-1H-dibenzo[b,e][1,4]diazepin-1-one] | 15.4 µM | > 133 µM |  |  |  |
| CC(=O)N1c2ccccc2NC2=C(C(=O)CC(C)(C)C2)C1c1ccc2c(c1)OCO2 (stereo not shown) [compound 284] |  |  | 30.9 µM | > 42.7 µM |  |
| O=C1C[C@@H](c2ccc3c(c2)OCO3)CC2=C1[C@H](c1ccc3c(c1)OCO3)Nc1ccccc1N2 [compound 492] | 11 µM | > 42.7 µM |  |  |  |
| CC(=O)N1c2ccccc2NC2=C(C(=O)CC(C)(C)C2)C1c1ccccc1OCc1ccccc1 (stereo not shown) [compound 19] |  |  |  | > 42.7 µM | EC50 ([1]; read-out: Replicon Assay EC50, Huh-Luc cells, three days incubation, luciferase activity): > 32 µM |
| CCCCCC(=O)N1c2ccccc2NC2=C(C(=O)CC(c3cccc([N+](=O)[O-])c3)C2)C1c1ccc(OC)c(OC)c1 (stereo not shown) [compound 174] |  |  |  |  | EC50 [1, 7]: 1.85 µM; IC50 [2, 8]: > 42.7 µM |
| COc1cc2c(cc1OC)NC(c1ccc(Cl)cc1Cl)C1=C(CC(C)(C)CC1=O)N2 (stereo not shown) [compound 467, 7,8-dimethoxy-11-(2,4-dichlorophenyl)-3,3-dimethyl-2,3,4,5,10,11-hexahydro-1H-dibenzo[b,e][1,4]diazepin-1-one] | 30 µM | > 133 µM |  |  |  |
| Cc1cc2c(cc1C)NC(c1ccc(Cl)c([N+](=O)[O-])c1)C1=C(CC(C)(C)CC1=O)N2 (stereo not shown) [compound 452] | 19.7 µM | > 42.7 µM |  |  |  |
| COc1ccc(C2C3=C(CC(C)(C)CC3=O)Nc3ccccc3N2C(C)=O)cc1COc1ccc(F)cc1 (stereo not shown) [compound 59] |  |  | 5.74 µM | > 42.7 µM |  |
| CC(=O)N1c2ccccc2NC2=C(C(=O)CC(c3cccc([N+](=O)[O-])c3)C2)C1c1ccccc1 (stereo not shown) [compound 234] |  |  |  |  | EC50 [1, 7]: 3.89 µM; IC50 [2, 8]: > 36.2 µM |
| CC(=O)N1c2ccccc2NC2=C(C(=O)CC(c3ccccc3F)C2)C1c1ccccc1 (stereo not shown) [compound 236] |  |  |  |  | EC50 [1, 7]: 11.8 µM; IC50 [2, 8]: > 42.7 µM |
| CN(C)c1ccc(C2C3=C(CC(C)(C)CC3=O)Nc3ccccc3N2C(=O)Cc2ccc(Cl)cc2)cc1 (stereo not shown) [compound 8] |  |  | 5.65 µM | > 42.7 µM |  |
| Cc1ccc(C2CC(=O)C3=C(C2)Nc2ccccc2N(C(=O)C(F)(F)F)C3c2ccccc2Cl)cc1 (stereo not shown) [compound 169] |  |  |  |  | EC50 [1, 7]: 17.7 µM; IC50 [2, 8]: > 33.3 µM |
| COc1ccc(OC)c(C2Nc3ccccc3NC3=C2C(=O)CC(c2ccc(Cl)cc2)C3)c1 (stereo not shown) [compound 356] | 16.1 µM | > 42.7 µM |  |  |  |
| Cc1ccc(C2C3=C(CC(c4ccccc4F)CC3=O)Nc3ccccc3N2C(=O)c2ccccc2)cc1 (stereo not shown) [compound 166] |  |  |  |  | EC50 [1, 7]: 3.98 µM; IC50 [2, 8]: > 42.7 µM |
| CCCCC(=O)N1c2ccccc2NC2=C(C(=O)CC(C)(C)C2)C1c1ccc(Cl)cc1Cl (stereo not shown) [compound 17] |  |  | 6.59 µM | > 42.7 µM |  |
| CCCCC(=O)N1c2ccccc2NC2=C(C(=O)CC(C)(C)C2)C1c1ccc(OC)c(OC)c1 (stereo not shown) [compound 80] |  |  | 9.53 µM | > 33.3 µM |  |

| SMILES | EC50 [1, 3] | IC50 [2, 4] | EC50 [1, 5] | IC50 [2, 6] | also measured |
| --- | --- | --- | --- | --- | --- |
| CCOc1ccccc1C1CC(=O)C2=C(C1)Nc1ccccc1N(C(=O)CC)C2c1ccc(OC)cc1 (stereo not shown) [compound 219] |  |  |  |  | EC50 [1, 7]: 2.26 µM; IC50 [2, 8]: > 42.7 µM |
| CC(=O)N1c2ccccc2NC2=C(C(=O)CC(C)(C)C2)C1c1cccc(O)c1 (stereo not shown) [compound 117] |  |  | > 32 µM | > 42.7 µM |  |
| CC(=O)N1c2ccccc2NC2=C(C(=O)CC(C)(C)C2)C1c1ccc(OCc2ccccc2)cc1 (stereo not shown) [compound 42] |  |  |  |  | EC50 [1, 7]: 6.39 µM; IC50 [2, 8]: 5.68 µM |
| COc1ccc([C@@H]2CC(=O)C3=C(C2)Nc2ccccc2N[C@H]3c2cccc3ccccc23)cc1OC [compound 496] | 22.9 µM | > 42.7 µM |  |  |  |
| O=C1CC(c2cccc([N+](=O)[O-])c2)CC2=C1C(c1ccco1)N(C(=O)C(F)(F)F)c1ccccc1N2 (stereo not shown) [compound 296] |  |  | 18.3 µM | > 42.7 µM |  |
| O=C1CC(c2ccc(Cl)cc2)CC2=C1C(c1cccc(F)c1)Nc1ccccc1N2 (stereo not shown) [compound 380] | 8.63 µM | > 42.7 µM |  |  |  |
| COc1ccc(C2CC(=O)C3=C(C2)Nc2ccccc2NC3c2ccc(C)cc2)cc1 (stereo not shown) [compound 384] | 15.9 µM | 4.58 µM |  |  |  |
| CC(=O)N1c2ccccc2NC2=C(C(=O)CC(C)(C)C2)C1c1ccccc1Cl (stereo not shown) [compound 112] |  |  | > 32 µM | > 42.7 µM |  |
| Cc1ccc(C2Nc3ccccc3NC3=C2C(=O)CC(c2ccccc2Cl)C3)cc1 (stereo not shown) [compound 395] | 9.91 µM | > 42.7 µM |  |  |  |
| CC(=O)N1c2ccccc2NC2=C(C(=O)CC(C)(C)C2)C1c1cccc(F)c1 (stereo not shown) [compound 104] |  |  | > 32 µM | > 42.7 µM |  |
| CC(=O)N1c2ccccc2NC2=C(C(=O)CC(C)(C)C2)C1c1ccc(OCc2ccncc2)cc1 (stereo not shown) [compound 145, 10-acetyl-3,3-dimethyl-11-[4-(4-pyridylmethoxy)phenyl]-2,3,4,5,10,11-hexahydro-1H-dibenzo[b,e][1,4]diazepin-1-one] |  |  | 5.92 µM | 23.1 µM |  |
| COc1ccc([C@@H]2CC(=O)C3=C(C2)Nc2ccccc2N[C@H]3c2cc3c(cc2Br)OCO3)cc1 [compound 486] | 3.31 µM | > 42.7 µM |  |  |  |
| O=C1CC(c2ccccc2)CC2=C1C(c1cccc(Oc3ccccc3)c1)Nc1ccccc1N2 (stereo not shown) [compound 361] | 6.65 µM | > 42.7 µM |  |  |  |
| COc1ccc(OC)c(C2C3=C(CC(C)(C)CC3=O)Nc3ccccc3N2C(=O)Cc2ccccc2)c1 (stereo not shown) [compound 22] |  |  | 10.8 µM | > 42.6 µM |  |
| CCC(=O)N1c2ccccc2NC2=C(C(=O)CC(C)(C)C2)C1c1ccc(OC)cc1OC (stereo not shown) [compound 75] |  |  | 20.5 µM | > 42.7 µM |  |
| COc1cccc(C2Nc3ccccc3NC3=C2C(=O)CC(c2ccc(Cl)cc2)C3)c1OC (stereo not shown) [compound 348] | 4.48 µM | 29.6 µM |  |  |  |
